{"source": "paper PMC10728895", "about": "“Stapled Phd Peptides Inhibit Doc Toxin Induced Growth Arrest in Salmonella” (ACS Chemical Biology, 2023)", "key": {"DocSTm toxin": {"system": "DocSTm toxin", "settings": "DocSTm 5 μM, peptide 50 μM", "outline": "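Thermal shift with 5 μM recombinant Doc toxin and 50 μM Phd peptides in 20 mM K2HPO4, 50 mM (NH4)2SO4, pH 8.0, SYPRO Orange 3×, ramped 25–95 °C. Tm from Boltzmann fit; ΔTm is peptide-bound minus free DocSTm Tm, triplicates.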"}, "[1]": {"system": "DocSTm (phosphorylation of EF-TuSTm)", "test": "Dot blot EF-Tu phosphorylation assay", "assay_type": "biochemical, Salmonella Typhimurium", "settings": "DocSTm 1 μM, EF-TuSTm 3 μM, peptide 10 μM to 5 nM (3-fold dilutions), 16 h RT, dot blot anti-phosphothreonine; compared at three times the DocSTm concentration; two independent experiments", "description": "Samples were prepared in assay buffer [50 mM HEPES (pH 7.5), 25 mM (NH4)2SO4, 2 mM TCEP, 2 mM MgCl2, and 1 mM ATP] with a final concentration of recombinant Doc at 1 μM, recombinant EF-Tu at 3 μM, and varying concentrations of synthetic Phd peptides (final concentrations: 10 μM to 5 nM). EF-Tu (3 μM) in assay buffer was used as a negative control (no Doc and Phd peptide), while EF-Tu (3 μM) with Doc (1 μM) in assay buffer was used as a positive control (no Doc inhibitor). The final sample volume was 10 μL. Samples were incubated for 16 h at RT and subsequently spotted on a nitrocellulose membrane. Phosphorylated EF-Tu was detected by immunodecoration using a rabbit monoclonal antiphosphothreonine antibody (Abcam, ab218195) at 1:2000 dilution (1 h at 4 °C), followed by incubation with a goat antirabbit IgG (H + L) HRP conjugate antibody (Advansta) at 1:10,000 dilution (1 h at RT). Chemiluminescence was developed using the HRP Luminata Kit (Merck, WBLUR0100) and captured with an ImageQuant LAS4000 Western blot imaging system (GE HealthCare). Each peptide was tested in two independent experiments."}, "[2]": {"system": "S. typhimurium (14028s) Δphd-doc::Km strain expressing DocSTm (pBAD33::doc)", "test": "Growth rescue experiments in DocSTm-expressing S. typhimurium", "assay_type": "cell-based", "settings": "10 μM synthetic peptide, 24 h, 37 °C, start OD600 0.1, M9 minimal medium with 0.5% arabinose; three independent experiments", "description": "S. typhimurium (14028s) Δphd-doc::Km strains carrying pCA24N (empty vector or encoding for the Phd^52–73 variant) and pBAD33::doc plasmids were grown overnight in LB medium containing 1% glucose and supplemented with 100 μg/mL carbenicillin and 34 μg/mL chloramphenicol antibiotics. Cultures were then diluted to an OD600 of approximately 0.1 into 200 μL of fresh M9 minimal medium supplemented with 0.5% arabinose, 100 μg/mL carbenicillin, 34 μg/mL chloramphenicol, and containing 2 or 10 μM of the indicated synthetic Phd^52–73 peptide. Untreated DocSTm-expressing S. typhimurium as well as S. typhimurium coexpressing Doc and Phd^52–73 peptides were included as controls in each experiment. After 2 h of incubation at RT, samples were transferred to a flat-bottom 96-well plate (Greiner), and OD600 was monitored every 15 min for 24 h at 37 °C using an Infinite M Plex plate reader (Tecan LifeScience) and orbital shaking with 1 mm amplitude. Peptides were tested in three independent experiments."}}, "note": "“Also recorded” adds a separate entry of the source. Non-standard residues stand in square brackets, D forms with d. Residues, ends and D or L forms follow the SMILES beside them. Nle = CCCC[C@H](N)C(=O)O", "data": [{"smiles": "CCCC[C@H](NC(=O)[C@H](Cc1c[nH]c2ccccc12)NC(C)=O)C(=O)N[C@@H](CC(=O)O)C(=O)N[C@@H](CC(=O)O)C(=O)N[C@@H](CCC(=O)O)C(=O)N[C@@H](Cc1ccccc1)C(=O)N[C@@H](C)C(=O)N[C@@H](C)C(=O)N[C@H](C(=O)N[C@@H](CCCC)C(=O)N[C@@H](C)C(=O)N[C@H](C(=O)N[C@@H](Cc1c[nH]cn1)C(=O)NCC(=O)N[C@@H](CC(N)=O)C(=O)N[C@@H](CCC(=O)O)C(=O)N[C@@H](CC(C)C)C(=O)N[C@@H](CCCNC(=N)N)C(=O)N[C@@H](CCC(=O)O)C(=O)N[C@@H](CC(C)C)C(=O)N[C@@H](C)C(=O)N[C@@H](CC(=O)O)C(=O)N[C@@H](CCCCN)C(=O)O)C(C)C)[C@@H](C)CC", "note": "[Peptide 1] (Ac-W[Nle]DDEFAAI[Nle]AVHGNELRELADK-OH)", "values": [{"measurement": "ΔTm (thermal shift) of DocSTm in the presence of peptide", "setting": "DocSTm toxin; SYPRO Orange 3×, 20 mM K2HPO4, 50 mM (NH4)2SO4, pH 8.0, average Tm with peptide minus average Tm of free DocSTm, mean ± SD", "result": "28.8 ± 2.7", "unit": "°C"}, {"measurement": "Average Tm of DocSTm in the presence of peptide", "setting": "DocSTm toxin; pH 8.0, average ± SD, replicates 3-48 (Table S3)", "result": "71.0 ± 1.1", "unit": "°C"}, {"measurement": "Inhibition of EF-TuSTm phosphorylation by DocSTm (concentration needed for full inhibition)", "setting": "[1]", "result": "fully inhibited"}, {"measurement": "Rescue from DocSTm-induced growth inhibition (OD600)", "setting": "[2]", "result": "consistent and full rescue; also recorded: growth rescue was also observed"}]}]}
